A word on the GI50: it is the concentration giving 50% growth inhibition.

Read-outs that look alike come from different tables or passages of the source. Where only a bound is given, the exact number is not on record here.

The results in this text go back to publication PMC9866588, “Novel 7-Chloro-4-aminoquinoline-benzimidazole Hybrids as Inhibitors of Cancer Cells Growth: Synthesis, Antiproliferative Activity, in Silico ADME Predictions, and Docking” (Molecules, 2023).

In one series the test system is THP-1 cells. The series is described as follows: Flow cytometry analysis of cell cycle, THP-1. The class given is cell-based, human. The settings on record: THP-1, 5 μM, 24 h. As to the method: (§1) To analyze the effects of the selected compounds (5d, 8d, and 12d) on the cell cycle of the HuT78 and THP-1 cells, the cells were seeded in 6-well plates (5 × 10^5 cells per well) and treated for 24 h with the selected compounds 5d and 12d (5 μM). The cells were then collected and fixed in cold 70% ethanol. The fixed samples were stained with 15 µg/mL of propidium iodide (PI) at room temperature and analyzed by flow cytometry (FACS Canto II, BD Biosciences). The results were analyzed using FlowLogic software.
(§2) One-way ANOVA analysis of variance was performed in the MedCalc statistical program for the analysis of the cell cycle. p-values of less than 0.05 were considered to be statistically significant.
For orientation: A flow cytometer gives signals particle by particle.

For series [1], the system named is CCRF-CEM (human acute lymphoblastic leukemia) cells. The series is described as follows: MTT antiproliferative assay, CCRF-CEM. The class given is cell-based. The settings on record: for GI50: Homo sapiens, CCRF-CEM, 72 h, MTT, mean ± SD of three independent experiments. The procedure: (§3) The growth inhibition activity was assessed according to the slightly modified procedure performed at the National Cancer Institute, Developmental Therapeutics Program.
(§4) The examined compounds were dissolved in DMSO (1 × 10^−2 M). The experiments were carried out on seven human tumor cell lines and a normal cell line. The following cell lines were used: HeLa (human cervical adenocarcinoma; purchased from ATCC), CaCo-2 (human colorectal adenocarcinoma), MCF-7 (human breast adenocarcinoma), CCRF-CEM (human acute lymphoblastic leukemia), Hut78 (T-cell lymphoma), THP-1 (acute monocytic leukemia), Burkitt lymphoma (Raji), and MDCK1 (Madine–Darby canine kidney). The MDCK1 cells were used between 24 and 26 passages.
(§5) The adherent cells were cultured in Dulbecco’s modified Eagle medium—DMEM (Gibco, Termo Fisher Scientific Inc., Leicestershire, England, UK), supplemented with 10% heat-inactivated fetal bovine serum (FBS, Gibco, Termo Fisher Scientific Inc., Leicestershire, England, UK), 2 mM glutamine, and 100U/0.1mg penicillin/streptomycin. The cells in suspension were cultured in RPMI 1640 (Gibco, Termo Fisher Scientific Inc., Leicestershire, England, UK) medium, supplemented with 10% FBS (Gibco, Termo Fisher Scientific Inc., Leicestershire, England, UK), 2 mM glutamine, 1 mM sodium pyruvate, and 10 mM HEPES. The cells were grown in a humidified atmosphere under the conditions of 37 °C/5% of CO2 gas in the CO2 incubator (IGO 150 CELLlife^TM, JOUAN, Thermo Fisher Scientific, Waltham, MA, USA).
(§6) The adherent cells (HeLa, CaCo-2, MCF-7, and MDCK-1) were plated in 96-well flat bottom plates (Greiner, Frickenhausen, Austria) at a concentration of 2 × 10^4 cells/mL. The suspension cells (Raji, THP-1, CCRF-CEM and Hut78) were plated in 96-well microtiter plates (Sarstead, Newton, NC, USA) at a concentration of 1 × 10^5 cells/mL. Twenty-four hours later, the cells were treated with test agents in […] and incubated for a further 72 h. The working dilutions were freshly prepared on the day of testing. The solvent was also tested for eventual inhibitory activity by adjusting its concentration to be the same as in the working concentrations. After 72 h of incubation, the cell growth rate was evaluated by performing the MTT assay, which detects dehydrogenase activity in viable cells. For this purpose, upon completion of the incubation period, the growth medium was discarded and 50 μL of MTT was added to each well at a concentration of 5 mg/mL. After four hours of incubation at 37 °C, the water insoluble MTT-formazan crystals were dissolved in 150 μL of dimethyl-sulfoxide (DMSO) for the adherent cells and in 10% SDS with 0.01 mol/L HCl for the cells grown in suspension. The absorbance (OD, optical density) was measured on a microplate reader (iMark, BIO RAD, Hercules, CA, USA) at 595 nm.
(§7) The percentage of live cells was calculated as follows: % = OD (sample) − OD (background)/OD (control) − OD (background) × 100.
(§8) The optical density (OD) of the background for the adherent cells is the OD of the MTT solution and DMSO; the OD (background) for the suspension cells is the OD of the culture medium with MTT and 10% SDS with 0.01 mol/L HCl; the OD (control) is the OD of the cells grown without the tested compounds.
(§9) The calculation of the GI50 value curves and QC analysis was performed using the Excel tools and GraphPadPrism software (La Jolla, CA, USA), v. 5.03. Briefly, individual concentration effect curves are generated by plotting the logarithm of the concentration of the tested compounds (X) vs. the corresponding percent inhibition values (Y) using the least squares fit. The best-fit GI50 values are calculated using log (inhibitor) versus normalized response—variable slope equation, where Y Ľ 100/(1 ţ 10 ((LogIC50 _ X) × HillSlope)). The QC criteria parameters (Z0, S:B, R2, HillSlope) were checked for every GI50 curve.
Background: Tetrazolium assays rely on reduction of a dye to a coloured formazan, in cell work by metabolically active cells.

Series [2] relates to CaCo-2 (human colorectal adenocarcinoma) cells. The series is described as follows: MTT antiproliferative assay, CaCo-2. The class given is cell-based. The settings on record: 72 h, mean ± SD of three independent experiments. The procedure: as §3, §4, §5, §6, §7, §8, §9
In series [3] the test system is Hut78 (T-cell lymphoma) cells. The series is described as follows: MTT antiproliferative assay, HuT78. The class given is cell-based, human. The settings on record: for GI50: Homo sapiens, HuT78, 72 h, MTT, mean ± SD of three independent experiments; for tumor selectivity index (SI) HuT78: with respect to MDCK1 cells. As to the method:
as §3, §4, §5, §6, §7, §8, §9

In series [4] the test system is Raji (Burkitt lymphoma) cells. The series is described as follows: MTT antiproliferative assay, Raji. The class given is cell-based, human. The settings on record: for GI50: Homo sapiens, Raji, 72 h, MTT, mean ± SD of three independent experiments. The procedure:
as §3, §4, §5, §6, §7, §8, §9

In series [5] the test system is MCF-7 (human breast adenocarcinoma) cells. Nature of the series: MTT antiproliferative assay, MCF-7. Format: cell-based. The settings on record: MCF7, 72 h, mean ± SD of three independent experiments. The procedure:
as §3, §4, §5, §6, §7, §8, §9

Series [6] concerns THP-1 (acute monocytic leukemia) cells. The series is described as follows: MTT antiproliferative assay, THP-1. The settings on record: for GI50: Homo sapiens, THP-1, 72 h, MTT, mean ± SD of three independent experiments, read-out: GI50 THP1. The class given is cell-based, human. As to the method:
as §3, §4, §5, §6, §7, §8, §9

For series [7], the system named is normal (MDCK1) and tumor cell lines. Nature of the series: MTT antiproliferative assay, ranges stated over several cell lines. Format: cell-based. The procedure: as §3, §4, §5, §6, §7, §8, §9
Experiment in series [8]: as above
Format: cell-based. The settings on record: human (tumor cell lines) and dog (MDCK1); abstract, range over cell lines; read-out: GI50 range (strong cytotoxic activity). The procedure:
as §3, §4, §5, §6, §7, §8, §9

Series [9] relates to MDCK1 (Madine–Darby canine kidney) cells. Nature of the series: MTT antiproliferative assay, MDCK1. The class given is cell-based. The settings on record: Canis lupus familiaris, MDCK1, 72 h, mean ± SD of three independent experiments. As to the method: as §3, §4, §5, §6, §7, §8, §9
Series [10] deals with HeLa (human cervical adenocarcinoma) cells. The series is described as follows: MTT antiproliferative assay, HeLa. The class given is cell-based. The settings on record: 72 h, mean ± SD of three independent experiments. As to the method: as §3, §4, §5, §6, §7, §8, §9
The test system of series [11] is HuT78 cells. The series is described as follows: Flow cytometry analysis of cell cycle, HuT78. The settings on record: HuT78, 5 μM, 24 h. Format: cell-based, human. The procedure:
as §1, §2

Series [12] concerns HuT78 cells. The series is described as follows: Annexin V-FITC/PI apoptosis detection. The class given is cell-based, human. The settings on record: HuT78, 5 μM, 24 h. As to the method: The proapoptotic potential of compounds 5d and 12d was tested on the HuT78 cells using the Annexin V-FITC Apoptosis Staining/Detection Kit (ab14085; abcam, UK). The cells were plated in 6-well plates at a concentration of 5 × 10^5 cells/well and treated for 24 h with 12d at a concentration of 5 μM. After the incubation period, the cells were collected and centrifuged at 1100 rpm for 6 min, stained according to the manufacturer‘s protocol, and analyzed by flow cytometry (BD FACSCalibur, Becton Dickinson, San Jose, CA, USA) using FlowJo software (FlowJo, LLC, Ashland, OR, USA).

Series [13] relates to HuT78 cells. Nature of the series: Mitochondrial membrane potential (∆Ψm), TMRE flow cytometry. Format: cell-based, human. The settings on record: HuT78, 5 μM, 24 h. As to the method:
Changes in the (∆Ψm) were measured using TMRE (tetramethylrhodamine, ethyl ester and perchlorate) dye. In brief, the tested cells (HuT 78) were plated in 6-well plates at a concentration of 5 × 10^5 cells per well and treated with 5 μM of the compounds 5d and 12d. After 24 h of treatment, the cells were collected, centrifuged for 6 min at 1100 rpm, and stained with 200 nM of TMRE dye according to the kit protocol (TMRE Mitochondrial Membrane Potential Assay Kit, abcam, Cambridge, UK). The positive control cells were treated with 20 μM FCCP (carbonyl cyanide-p-trifluoromethoxyphenylhydrazone) for 10 min. The cells were analyzed by flow cytometry (BD FACSCalibur, Becton Dickinson, San Jose, CA, USA) and FlowJo software (FlowJo, LLC, Ashland, OR, USA).

As for `Clc1ccc2c(N3CCN(c4ccc(-c5nc6ccccc6[nH]5)cc4)CC3)ccnc2c1` [Compound 8d, 4-(4-(4-(1H-benzo[d]imidazol-2-yl)phenyl)piperazin-1-yl)-7-chloroquinoline], the “changes in the cell cycle” value in the series on THP-1 cells (vs non-treated cells) and in the series on HuT78 cells [11] (vs non-treated cells) was “no significant changes” each time. The GI50 in [1] is 5 ± 2.6 µM; in series [2], over 100 µM; in [3], 8.1 ± 4.7 µM; in series [4], 3.8 ± 0.5 µM; in series [5] it was over 100 µM; in [6], 3.2 ± 1.1 µM. The GI50 in series [7] (MDCK1 and carcinoma cell lines, read-out: GI50, normal and carcinoma cells) is over 100 µM; in series [9], over 100 µM; in [10] it was over 100 µM. In series [1] (with respect to MDCK1 cells), the “tumor selectivity index (SI) CCRF CEM” value was over 20. Besides, the “tumor selectivity index (SI) HuT78” value in [3] is reported as over 12.3. Also, in series [4] (with respect to MDCK1 cells), the “tumor selectivity index (SI) Raji” value is over 26.3. In addition, the “tumor selectivity index (SI) THP1” value in series [6] (with respect to MDCK1 cells) is reported as over 31.5. Also, the 50% growth inhibitory concentration (GI50) at 72 h in [8] lay within 0.4 to 8 µM.
Take `O=C(NCCNc1ccnc2cc(Cl)ccc12)c1ccc(-c2nc3ccccc3[nH]2)cc1` [Compound 12d, 4-(1H-benzo[d]imidazol-2-yl)-N-(2-(7-chloroquinolin-4-ylamino)ethyl)benzamide]: in the series with HuT78 cells [12], the “cells in early apoptosis” value amounted to 3.97%. In the series with HuT78 cells [12], the “cells in late stage of apoptosis/necrosis” value was 83.75%. The “changes in the other phases of the cell cycle (other than subG0/G1)” value with THP-1 cells is given as “not statistically significant”. For the same compound, the “increase of cells in subG0/G1 phase” value in the series on THP-1 cells (vs control) is 3.4 times; in the series with HuT78 cells [11] (vs control) it was 46 times. Further, the GI50 was 17.2 ± 7.7 µM in series [1]; 16.4 ± 5.6 µM in series [2]; 3.5 ± 1.5 µM in series [3]; 57.7 ± 23.8 µM in [4]; 20 ± 7.2 µM in series [5]; 4 ± 0.8 µM in [6]. For the same compound, the GI50 in series [9] and in series [10] was 100 µM in each case. Further, the “tumor selectivity index (SI) HuT78” value in series [3] was found to be 28.5. Further, the “cells with mitochondrial membrane disruption / change in ∆Ψm” value in the series with HuT78 cells [13] was “more than 85%”. Also, the GI50 at 72 h in series [8] was 0.4 to 8 µM. Moreover, the “proportion of polyploid giant cancer cells” value with HuT78 cells [11] is given as “increased proportion”. For the same compound, the “decrease in G0/G1 phase” value in the series on HuT78 cells [11] (vs non-treated cells) was 63.8%.
Consider `Clc1ccc2[nH]c(-c3ccc(N4CCN(c5ccnc6cc(Cl)ccc56)CC4)cc3)nc2c1` [Compound 8e, 7-chloro-4-(4-(4-(5-chloro-1H-benzo[d]imidazol-2-yl)phenyl)piperazin-1-yl)quinoline], for which the GI50 was 41 ± 0.5 µM in series [1]; over 100 µM in series [2]; 15.6 ± 9.8 µM in series [3]; 13.4 ± 2.6 µM in [4]; 84 ± 7.7 µM in series [5]; 22.3 ± 7.4 µM in series [6]. For the same compound, the GI50 in [7] (MDCK1, leukemia and lymphoma cell lines, read-out: GI50 range, leukemia and lymphoma cells) was 13.4 to 41 µM; in [9], 2.7 ± 0.3 µM; in [10] it was 100 µM.
